Where two headings read alike, the source gives them in different places.
Assays:
kindlin-3 PH domain [1] = target: T1, kindlin-3 PH domain (Mus musculus, UniProt Q8K1B8); assay: SPR, immobilised biotinylated kindlin-3 PH domain as ligand, lipid nanodiscs as analyte; assay type: binding
T1 construct: kindlin-3 PH domain (residues 344–479); His6-GST (tandem), followed by HRV-3C site (N, cleaved yes); made in house; host or cells: BirA+ Escherichia coli strain
Experimental: (§1) The observation in MD simulation that multiple phosphoinositol molecules may bind to more than one site on a single PH domain (Figures 2 and 3) led us to attempt further verification of this mode of interaction experimentally. […] To study the effect of phosphatidylinositol lipid concentrations on their binding by PH domains, we performed the SPR experiments in an inverted set-up. The biotinylated PH domain was immobilised onto the sensor chip and the nanodiscs were prepared as the analyte.
POPC and POPE (1-palmitoyl-2-oleoyl-sn-glycero-3-phosphoethanolamine) were purchased from Avanti Polar Lipids, and PtdIns(4,5)P2 (P-4516), PtdIns(3,4,5)P3 (P-3924), and Ins(1,3,4,5)P4 (Q-1345) were purchased from Echelon Biosciences. Nanodiscs were prepared following standard protocols. Briefly, to prepare nandiscs containing 5% (mol/mol) PtdIns(3,4,5)P3, a mixture of 200 µl of 10 mg/ml POPC, 200 µl of 10 mg/ml POPE together with 670 µl of 0.5 mg/ml PtdIns(3,4,5)P3 in chloroform were dried on a clean Pyrex tube under argon. Chloroform residue was then removed by desiccation in a desiccator attached on a VARIO-SP diaphragm pump (Vacuubrand). The lipid film was subsequently hydrated by adding 1 ml of solubilisation buffer [20 mM HEPES (pH 7.5), 150 mM NaCl, and 17 mM Na-cholate] followed by vigorous votexing. […]

[2] = test system: T2, kindlin-3 PH domain, two lysines within the β1–β2 loop mutated; assay: SPR, immobilised kindlin-3 PH domain with two β1–β2 loop lysines mutated, lipid nanodiscs as analyte; assay type: binding, mouse; settings: site-directed mutagenesis of two lysines within the β1–β2 loop
T2 construct: kindlin-3 PH domain (residues 344–479); His6-GST (tandem), followed by HRV-3C site (N, cleaved yes); made in house; host or cells: BirA+ Escherichia coli strain
Experimental: as §1
(§2) SPR experiments were performed using a Biacore T200 machine (GE Healthcare Life Sciences) at 20°C in 10 mM HEPES (pH 7.5) and 150 mM NaCl. PtdIns(4,5)P2 (C-45B6a) and PtdIns(3,4,5)P3 (C-39B6a) were purchased from Echelon Biosciences. The BIAcore CM5 chip (GE Healthcare Life Sciences) was firstly covered with streptavidin following the manufacturer's instructions before the biotinylated PIPs or biotinylated proteins were immobilised. The analyte with twofold serial dilutions was applied at a flow rate of 20 µl/min for 180 s followed by 600 s of dissociation time. The biosensor chip was regenerated after each sample injection cycle with a different buffer in the two experimental set-ups: in the case of immobilised PIPs on the sensor chip, 0.1% SDS was used; when the PH domain was immobilised, then the surface was regenerated by 2 M MgCl2. […]

kindlin-3 PH domain [3] = target: T1, kindlin-3 PH domain; assay: SPR, immobilised biotinylated lipid headgroup as ligand, kindlin-3 PH domain WT as analyte; assay type: binding
Excerpt: To verify the potential interaction between clustered phosphatidylinositol phosphates and the kindlin-3 PH domain observed in our MD simulations, we conducted surface plasmon resonance (SPR) experiments. Firstly, a biotinylated inositol phosphate was immobilised onto a streptavidin-derivatised sensor chip, as in previous studies. The use of streptavidin-mediated immobilisation meant that the distance separating individual lipids would be larger than the size of the tetrameric streptavidin, and therefore than the PH domain itself, meaning that one PH domain would be able to bind no more than one lipid headgroup simultaneously, imposing one-to-one binding in the interaction (Figure 4A). […] We note that, in the MD simulation with the mutated form of the kindlin-3 PH domain, the protein is capable of binding to the bilayer in a similar orientation to the wild type (WT); however, in many simulations, it quickly dissociates from the bilayer (Supplementary Figure S8). A naturally occurred IPRR (isoleucine–proline–arginine–arginine) insertion in the β1–β2 loop of kindlin-3 has been reported to disable integrin activation and thus lymphocyte adhesion and migration.
SPR experiments were performed using a Biacore T200 machine (GE Healthcare Life Sciences) at 20°C in 10 mM HEPES (pH 7.5) and 150 mM NaCl. PtdIns(4,5)P2 (C-45B6a) and PtdIns(3,4,5)P3 (C-39B6a) were purchased from Echelon Biosciences. The BIAcore CM5 chip (GE Healthcare Life Sciences) was firstly covered with streptavidin following the manufacturer's instructions before the biotinylated PIPs or biotinylated proteins were immobilised. The analyte with twofold serial dilutions was applied at a flow rate of 20 µl/min for 180 s followed by 600 s of dissociation time. The biosensor chip was regenerated after each sample injection cycle with a different buffer in the two experimental set-ups: in the case of immobilised PIPs on the sensor chip, 0.1% SDS was used; when the PH domain was immobilised, then the surface was regenerated by 2 M MgCl2. The data were fit with a 1:1 Langmuir adsorption model (B = BmaxC/(KD + C), where B is the response of bound analyte and C is the concentration of the analyte in the sample to calculate the dissociation constant (KD) using the BIAanalysis software. The molecular mass of the nanodiscs for SPR analysis was estimated to be 120 kDa.

Grp1 PH domain [4] = target: T3, Grp1 PH domain (Homo sapiens, UniProt O43739); assay: SPR, immobilised lipid headgroup as ligand, Grp1 PH domain as analyte; assay type: binding
T3 construct: UniProtKB: O43739) PH domain (residues 264–392) were cloned into a pOPINJ vector; His6-GST (tandem), followed by HRV-3C site (N, cleaved yes); made in house; host or cells: E. coli (same protocol as kindlin-3 PH, B834)
T3 sequence (O43739 264-392): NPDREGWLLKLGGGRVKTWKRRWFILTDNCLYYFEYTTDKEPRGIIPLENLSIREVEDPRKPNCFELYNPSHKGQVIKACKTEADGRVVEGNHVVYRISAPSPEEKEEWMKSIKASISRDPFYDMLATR
Excerpt: We further asked whether our observations are specific to the kindlin-3 PH domain (and similar domains) or could also be shown for PH domains which are already known to bind to inositol phosphate species in a classical, 1:1 interaction mode. If they could be shown for such well-characterised domains, then our results with the kindlin-3 PH domain would seem questionable. […] So, in the case of Grp1, there is only a five times difference in affinity between immobilised lipid headgroups and whole lipids in a lipid nanodisc (rather than the ∼100× enhancement observed with the kindlin-3 PH domain).
as §2, with “time.” for “time. The biosensor chip was regenerated after each sample injection cycle with a different buffer in the two experimental set-ups: in the case of immobilised PIPs on the sensor chip, 0.1% SDS was used; when the PH domain was immobilised, then the surface was regenerated by 2 M MgCl2.”

Grp1 PH domain [5] = target: T3, Grp1 PH domain; parameters: method as in PMID 26977543; settings: same method; ref [34]; cited from earlier work
[6] = immobilised headgroup on streptavidin chip, WT PH domain as analyte, 20°C, 10 mM HEPES pH 7.5, 150 mM NaCl, 1:1 Langmuir fit, read-out: dissociation constant (KD)

T1 sequence (Q8K1B8 344-479): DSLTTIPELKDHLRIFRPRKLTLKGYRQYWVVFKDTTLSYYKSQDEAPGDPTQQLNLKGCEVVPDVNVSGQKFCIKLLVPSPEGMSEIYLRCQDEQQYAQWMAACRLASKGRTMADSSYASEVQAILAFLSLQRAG

Row | Substance | nanodisc binding to the PH domain (in words) (kindlin-3 PH domain [1]; PtdIns(3,4,5)P3 composition reduced to 1% of nanodisc lipids) | nanodisc binding to the PH domain (in words) [2] | Kd (kindlin-3 PH domain [3]; immobilised headgroup on streptavidin chip, WT PH domain as analyte, 20°C, 10 mM HEPES pH 7.5, 150 mM NaCl, 1:1 Langmuir fit, listed as PIP3, read-out: dissociation constant (KD)) | Kd (kindlin-3 PH domain [3]; [6]) | Bmax (Grp1 PH domain [4]; immobilised PtdIns(3,4,5)P3 headgroup) | Kd (Grp1 PH domain [4]; immobilised headgroup) | PMF well depth (Grp1 PH domain [5]) | nanodisc binding to the PH domain (in words) (kindlin-3 PH domain [1]; inositol phosphate lipid 5% of total lipids in nanodisc) | Kd (kindlin-3 PH domain [3]; immobilised headgroup, PH domain as analyte, as given in the abstract, read-out: affinity (KD))
1 | PtdIns(3,4,5)P3 | abolishes nanodisc binding | abolishes nanodisc binding | ~300 µM | 300 µM | 7150 RU | 2800 ± 400 nM | -5.3 kcal/mol | – | –
2 | PtdIns(4,5)P2 | – | – | – | 1100 µM | – | – | -3.8 kcal/mol | no affinity | 1000 µM
